# Results from patent publication US10245261B2, “Substituted indol-5-ol derivatives and their therapeutic applications” (NantBioScience, Inc., priority 2013, dated 2019).
# What was measured:
# [1] = tested on: NCI 60 cancer cell line panel; assay: NCI-60 DTP Human Tumor Cell Line Panel, SRB growth inhibition; format: cell-based; conditions: cell lines from the NCI 60 panel
# Protocol: The human tumor cell lines of the cancer screening panel are grown in RPMI 1640 medium containing 5% fetal bovine serum and 2 mM L-glutamine. For a typical screening experiment, cells are inoculated into 96 well microtiter plates in 100 μL at plating densities ranging from 5,000 to 40,000 cells/well depending on the doubling time of individual cell lines. After cell inoculation, the microtiter plates are incubated at 37° C., 5% CO2, 95% air and 100% relative humidity for 24 h prior to addition of experimental drugs.
# After 24 h, two plates of each cell line are fixed in situ with TCA, to represent a measurement of the cell population for each cell line at the time of drug addition (Tz). Experimental drugs are solubilized in dimethyl sulfoxide at 400-fold the desired final maximum test concentration and stored frozen prior to use. At the time of drug addition, an aliquot of frozen concentrate is thawed and diluted to twice the desired final maximum test concentration with complete medium containing 50 μg/ml gentamicin. Additional four, 10-fold or ½ log serial dilutions are made to provide a total of five drug concentrations plus control. Aliquots of 100 μl of these different drug dilutions are added to the appropriate microtiter wells already containing 100 μl of medium, resulting in the required final drug concentrations.
# Following drug addition, the plates are incubated for an additional 48 h at 37° C., 5% CO2, 95% air, and 100% relative humidity. For adherent cells, the assay is terminated by the addition of cold TCA. Cells are fixed in situ by the gentle addition of 50 μl of cold 50% (w/v) TCA (final concentration, 10% TCA) and incubated for 60 minutes at 4° C. The supernatant is discarded, and the plates are washed five times with tap water and air dried. Sulforhodamine B (SRB) solution (100 μl) at 0.4% (w/v) in 1% acetic acid is added to each well, and plates are incubated for 10 minutes at room temperature. After staining, unbound dye is removed by washing five times with 1% acetic acid and the plates are air dried. Bound stain is subsequently solubilized with 10 mM trizma base, and the absorbance is read on an automated plate reader at a wavelength of 515 nm. For suspension cells, the methodology is the same except that the assay is terminated by fixing settled cells at the bottom of the wells by gently adding 50 μl of 80% TCA (final concentration, 16% TCA). Using the seven absorbance measurements [time zero, (Tz), control growth, (C), and test growth in the presence of drug at the five concentration levels (Ti)], the percentage growth is calculated at each of the drug concentrations levels. Percentage growth inhibition is calculated as: [(Ti−Tz)/(C−Tz)]×100 for concentrations for which Ti>/=Tz [(Ti−Tz)/Tz]×100 for concentrations for which Ti<Tz.
# Three dose response parameters are calculated for each experimental agent.
# [2] = tested on: TT human Thyroid carcinoma xenograft; assay: Thyroid carcinoma xenograft; format: in vivo, mouse
# Protocol: This example assesses Compound 10, 53 and 88's anti-tumor activity using a SCID mouse xenograft models for TT human Thyroid carcinoma xenograft (FIGS. 65 to 69.)
# On the appropriate days, each animal in an appropriate group will receive a specific amount of Compound 10 either at 50 or 100 mg/kg, and the dosing volume is 10 ml/kg by oral gavage as indicated. Dosing schedule will be once daily for 30 days.
# On the appropriate days, each animal in an appropriate group will receive a specific amount of Compound 53 either at 50 or 100 mg/kg, and the dosing volume is 10 ml/kg by oral gavage as indicated. Dosing schedule will be once daily for 30 days.
# Dosing schedule will be once daily for 30 days.
# [3] = tested on: human K562 chronic myelogenous leukemia (CML) xenograft; assay: CML xenograft model in female SCID mice; format: in vivo, mouse
# Protocol: The objective of the second study was to evaluate antitumor activities of novel multiple-kinase inhibitor NTW-3475 in human K562 chronic myelogenous leukemia (CML) xenograft model in female SCID mice.
# Four to six animals were randomly assigned to study groups. Each animal was weighed, and then injected subcutaneously in the left and right flank area with 0.1 ml of 8.0×10^7 K562 cells per mL.
# (§1) Each test or control animal was on a 5-day on, two-day off for two cycles treatment schedule. Tumor growth was measured with a digital hand held caliper twice weekly (once tumor emerges) prior to the first dosing and then two to three times weekly until euthanized. Animals were weighed prior to tumor cell injection, prior to dosing, two to three times weekly with tumor growth measurements, and prior to euthanasia.
# This example illustrated antitumor activities of Compound 10 and 11 in human K562 chronic myelogenous leukemia (CML) xenograft model in female SCID mice.
# On the appropriate days, each animal in an appropriate group will receive a specific amount of test article either at 75 or 100 mg/kg, and the dosing volume is 10 ml/kg by oral gavage as indicated. Dosing schedule will be once daily for 10 days (qd×10, 5 days on and 2 days off for 2 cycles).
# [4] = tested on: human MIAPaCa-2 pancreatic carcinoma xenograft; assay: Pancreatic carcinoma xenograft in athymic nude mice; format: in vivo, mouse; conditions: MIAPaCa-2 xenograft
# Protocol: The objective of the third study was to evaluate antitumor activities of novel multiple-kinase inhibitor NTW-3475 in human MIAPaCa-2 pancreatic carcinoma xenograft in athymic nude-Faxn1 mice.
# Four animals were randomly assigned to study groups. Each animal was weighed, and then injected subcutaneously in the left and right flank area with 0.1 ml of 5.0×10^7 MIAPaCa-2 cells per mL.
# Each test or control animal was on a 5-day on, two-day off for two cycles treatment schedule with negative control vehicle, positive control Abraxane at 20 mg/kg or 25, 50 mg/kg of NTW-3475. Tumor growth was measured with a digital hand held caliper twice weekly (once tumor emerges) prior to the first dosing and then two to three times weekly until euthanized.
# The objective of the third study was to evaluate antitumor activities of novel multiple-kinase inhibitor Compound 10, 11, 12, 53, 68, 82, 83, 88, and 90 in human MIAPaCa-2 pancreatic carcinoma xenograft in athymic nude-Faxn1 mice.
# Each test or control animal was on a 5-day on, two-day off for three cycles treatment schedule with negative control vehicle or 40 mg/kg of Compound 10, 11, 12, 53, 68, 82, 83, 88 and 90. Tumor growth was measured with a digital hand held caliper twice weekly (once tumor emerges) prior to the first dosing and then two to three times weekly until euthanized.
# [5] = tested on: human MV411 human acute myelogenous leukemia (AML) xenograft; assay: AML xenograft model in female SCID mice; format: in vivo, mouse
# Protocol: The objective of the first study was to evaluate antitumor activities of the novel multiple-kinase inhibitor NTW-3475 against human MV411 human acute myelogenous leukemia (AML) xenograft model in female SCID mice.
# Four or six animals were randomly assigned to each study group. Each animal was injected subcutaneously in the left and right flank area with 0.1 ml of 1.0×10^8 MV411 cells per mL.
# as §1, with “animal was placed on a” for “animal was on a”, “two cycles of vehicle negative control or 25, 50 mg/kg of NTW-3475. Tumor growth” for “two cycles treatment schedule. Tumor growth”
# The objective of the first study was to evaluate antitumor activities of the novel multiple-kinase inhibitor Compounds 11, 68, and 82 against human MV411 human acute myelogenous leukemia (AML) xenograft model in female SCID mice.
# as §1, with “animal was placed on a” for “animal was on a”, “two cycles of vehicle negative control or 25, 50 mg/kg of compound. Tumor growth” for “two cycles treatment schedule. Tumor growth”
# [6] = tested on: AN3 human endometrial carcinoma xenograft; assay: Endometrial carcinoma xenograft; format: in vivo, mouse
structure (smiles),measurement,setting,value
Cc1cc2c(F)c(Oc3nc(Nc4cc(C5CC5)[nH]n4)cc(N4CCN(C)CC4)n3)cc(F)c2[nH]1 [NTW-3475],antiproliferative activity,[1],strong antiproliferative activity
same,anti-tumor effect,[2],anti-tumor effect
same,anti-tumor effect,[3],strong anti-tumor effect
same,anti-tumor effect in combination with Abraxane,[4]; combination with Abraxane,anti-tumor effect
same,anti-tumor effect,"[4]; nude mice, single agent",strong anti-tumor effect
same,anti-tumor effect,[5],strong anti-tumor effect
same,body weight change,[5],minimal body weight lost
same,anti-tumor effect,[6],anti-tumor effect
